From patent US9366682B2, “Use of stathmin as a biomarker of drug response to furazanobenzimidazoles” (BASILEA PHARMACEUTICA AG, priority 2011, dated 2016)

Experiments:
Format in all cases: cell-based, human
A549 NSCLC cells = experiment: Immunofluorescent staining of microtubules in cultured cells; details: for Microtubule phenotype: A549, 24 hours treatment, mitotic or G2/M arrested cells, anti-alpha-tubulin staining, BAL27862 50 nM, Compound B 80 nM, Compound C 20 nM; for Microtubule phenotype, combination treatment: colchicine
Protocol: (§1) A549 human non-small cell lung cancer (NSCLC, ATCC reference number CCL-185) cells, HeLa cervical cancer cells (ATCC reference number CCL-2) and SKBR3 breast carcinoma cells (ATCC reference number HTB-30) were seeded at densities of 50% on round microscope coverslips and cultured for 24 hours in RPMI-1640 containing 10% FCS (also referred to as FBS) at 37° C., 5% CO2. Compounds to be tested were dissolved in DMSO. The cell culture medium was replaced with medium containing the diluted compound(s) (paclitaxel, vinblastine, colchicine and nocodazole were purchased from Sigma-Aldrich) or vehicle. After treatment for the times indicated in the Brief Description of the Figures, coverslips were washed and cells were fixed in methanol/acetone (1:1) for 5 minutes at room temperature and subsequently incubated in blocking buffer (0.5% BSA and 0.1% TX-100 in PBS) for 30 minutes at room temperature. Specimens were then incubated with anti-alpha-tubulin antibody (Sigma, 1:2000) for 1 hour at room temperature in blocking buffer. After several washing steps cells were incubated with AlexaFluor-488 goat-anti-mouse IgG (Molecular Probes, 1:3000) for 1 hour at room temperature followed by several washing steps with blocking buffer. Specimens were then mounted with ProLong Gold antifade (Molecular Probes), sealed with nail polish and examined with a Leica immunofluorescence microscope. Images were captured with a cooled CCD-camera and processed by ImageJ software.

[1] = system: MEXF 989 patient-derived melanoma cells; experiment: Colony outgrowth assay, patient-derived melanoma MEXF 989; details: for Response (sensitive/resistant): colony outgrowth, melanoma MEXF 989 (resistant model 2), by IC70 criteria
Protocol: (§2) Single cell suspensions of patient-derived tumour xenografts (maintained in nude mice) were prepared. For colony outgrowth assays, cells were plated in soft agar in 24-well plates according to the assay introduced by Hamburger & Salmon (Primary bioassay of human tumour stem cells, Science, 1977, 197:461-463). 2×10^4-6×10^4 cells in 0.2 mL medium containing 0.4% agar were plated out on a bottom layer of 0.75% agar. Test compounds were applied in 0.2 mL culture medium. Every 24-well plate contained untreated controls and samples in triplicates. Cultures were incubated at 37° C. and 7.5% CO2 for 5-28 days. 24 hours prior to analysis, vital colonies were stained with a solution of metabolizable tetrazolium salt (Alley M C et al, Life Sci. 1982, 31:3071-3078) and were counted with an automatic image analysis system (Omnicon 3600, Biosys GmbH).
(§3) Relative drug effects were expressed by the ratio of the mean number of colonies in the treated wells and the control wells. IC70-values were determined by plotting compound concentrations versus relative colony counts.

[2] = system: MEXF 1341 patient-derived melanoma cells; experiment: Colony outgrowth assay, patient-derived melanoma MEXF 1341; set-up: key to Response (sensitive/resistant): BAL27862-sensitive tumour cells were those that had IC70 values in the low nanomolar range; BAL27862-resistant tumour cells had IC70 values >600 nanomolar; details: for Response (sensitive/resistant): colony outgrowth, melanoma MEXF 1341, by IC70 criteria
Protocol: as §2, §3

[3] = system: MEXF 276 patient-derived melanoma cells; experiment: Colony outgrowth assay, patient-derived melanoma MEXF 276; set-up: key to Response (sensitive/resistant): BAL27862-sensitive tumour cells were those that had IC70 values in the low nanomolar range; BAL27862-resistant tumour cells had IC70 values >600 nanomolar; details: for Response (sensitive/resistant): colony outgrowth, melanoma MEXF 276 (resistant model 1), by IC70 criteria
Protocol: as §2, §3

[4] = system: GXF 97 patient-derived gastric tumour cells; experiment: Colony outgrowth assay, patient-derived gastric tumour GXF 97; set-up: key to Response (sensitive/resistant): BAL27862-sensitive tumour cells were those that had IC70 values in the low nanomolar range; BAL27862-resistant tumour cells had IC70 values >600 nanomolar; details: for Response (sensitive/resistant): colony outgrowth, Gastric GXF 97, by IC70 criteria
Protocol: as §2, §3

[5] = system: LXFE211 patient-derived lung cancer cells; experiment: Colony outgrowth assay, patient-derived lung cancer LXFE211; set-up: key to Response (sensitive/resistant): BAL27862-sensitive tumour cells were those that had IC70 values in the low nanomolar range; BAL27862-resistant tumour cells had IC70 values >600 nanomolar; details: for Response (sensitive/resistant): colony outgrowth, Lung LXFE211, by IC70 criteria
Protocol: as §2, §3

[6] = system: GXF 251 patient-derived gastric tumour cells; experiment: Colony outgrowth assay, patient-derived gastric tumour GXF 251; set-up: key to Response (sensitive/resistant): BAL27862-sensitive tumour cells were those that had IC70 values in the low nanomolar range; BAL27862-resistant tumour cells had IC70 values >600 nanomolar; details: for Response (sensitive/resistant): colony outgrowth, Gastric GXF 251, by IC70 criteria
Protocol: as §2, §3

[7] = system: SKBR3 breast cancer cells; experiment: Immunofluorescent staining of microtubules in cultured cells; details: SKBR3, 24 hours treatment with 50 nM, anti-alpha-tubulin staining
Protocol: as §1

[8] = system: HeLa cervical cancer cells; experiment: as above; details: 24 hours treatment with 50 nM, anti-alpha-tubulin staining
Protocol: as §1

[9] = system: LXFE397 patient-derived lung cancer cells; experiment: Colony outgrowth assay, patient-derived lung cancer LXFE397
Protocol: as §2, §3

| SMILES | Microtubule phenotype (A549 NSCLC cells) | Response (sensitive/resistant) [2] | Response (sensitive/resistant) [4] | Response (sensitive/resistant) [5] | Response (sensitive/resistant) [6] | also measured |
| --- | --- | --- | --- | --- | --- | --- |
| Nc1ccc(C(=O)Cn2c(-c3nonc3N)nc3ccccc32)cc1 [Compound B, 2-[2-(4-Amino-furazan-3-yl)-benzoimidazol-1-yl]-1-(4-amino-phenyl)-ethanone] | highly reproducible and distinct microtubule phenotype |  |  |  |  |  |
| CC(=O)O[C@H]1C(=O)[C@@]2(C)[C@H]([C@H](OC(=O)c3ccccc3)[C@]3(O)C[C@H](OC(=O)[C@H](O)[C@@H](NC(=O)c4ccccc4)c4ccccc4)C(C)=C1C3(C)C)[C@]1(OC(C)=O)CO[C@@H]1C[C@@H]2O [paclitaxel, reference compound] | mitotic microtubule phenotypes characteristic of these agents | resistant (BAL27862-resistant tumour cells had IC70 values >600 nanomolar) | resistant (BAL27862-resistant tumour cells had IC70 values >600 nanomolar) | esistant | resistant (BAL27862-resistant tumour cells had IC70 values >600 nanomolar) | Response (sensitive/resistant) [1]: resistant (BAL27862-resistant tumour cells had IC70 values >600 nanomolar); Response (sensitive/resistant) [3]: resistant (BAL27862-resistant tumour cells had IC70 values >600 nanomolar) |
| COC(=O)Nc1nc2ccc(C(=O)c3cccs3)cc2[nH]1 [nocodazole, reference compound] | mitotic microtubule phenotypes characteristic of these agents |  |  |  |  |  |
| COc1cc2c(c(OC)c1OC)-c1ccc(OC)c(=O)cc1[C@@H](NC(C)=O)CC2 [colchicine, reference compound] | mitotic microtubule phenotypes characteristic of these agents |  |  |  |  |  |
| CC[C@]1(O)C[C@@H]2CN(CCc3c([nH]c4ccccc34)[C@@](C(=O)OC)(c3cc4c(cc3OC)N(C)[C@H]3[C@@](O)(C(=O)OC)[C@H](OC(C)=O)[C@]5(CC)C=CCN6CC[C@]43[C@@H]65)C2)C1 [vinblastine, reference compound] | mitotic microtubule phenotypes characteristic of these agents | sensitive | sensitive | sensitive | sensitive | Response (sensitive/resistant) [1]: resistant (BAL27862-resistant tumour cells had IC70 values >600 nanomolar); Response (sensitive/resistant) [3]: sensitive |
| N#CCCNc1nonc1-c1nc2ccccc2n1CC(=O)c1ccc(N)cc1 [BAL27862, 3-(4-{1-[2-(4-Amino-phenyl)-2-oxo-ethyl]-1H-benzoimidazol-2-yl}-furazan-3-ylamino)-propionitrile] | multiple dot-like structures | sensitive | resistant (BAL27862-resistant tumour cells had IC70 values >600 nanomolar) | sensitive | sensitive | IC70 ([1]; 70% growth inhibition versus controls, melanoma MEXF 989): >3.5 µM; Microtubule phenotype, combination treatment (A549 NSCLC cells; A549, 24 hours BAL27862 with the final 4 hours including vinblastine, paclitaxel or nocodazole): no impact on the observed microtubule phenotype; Microtubule phenotype (A549 NSCLC cells; listed as compound A): highly reproducible and distinct microtubule phenotype; Microtubule phenotype, combination treatment (A549 NSCLC cells; A549, 24 hours vinblastine, paclitaxel or nocodazole with the final 4 hours including BAL27862): disruption of the microtubule structures; Microtubule phenotype [7]: highly reproducible and distinct microtubule phenotype; Microtubule phenotype [8]: highly reproducible and distinct microtubule phenotype; IC70 ([2]; 70% growth inhibition versus controls, melanoma MEXF 1341): 0.025 µM; IC70 ([9]; 70% growth inhibition versus controls, Lung LXFE397): >3.5 µM; Response (sensitive/resistant) ([9]; colony outgrowth, Lung LXFE397, by IC70 criteria): resistant (BAL27862-resistant tumour cells had IC70 values >600 nanomolar); IC70 ([3]; 70% growth inhibition versus controls, melanoma MEXF 276): >3.5 µM; IC70 ([4]; 70% growth inhibition versus controls, Gastric GXF 97): >3.5 µM; IC70 ([5]; 70% growth inhibition versus controls, Lung LXFE211): 0.021 µM; IC70 ([6]; 70% growth inhibition versus controls, Gastric GXF 251): 0.485 µM |
| N#CCCNc1nonc1-c1nc2ccccc2n1CC(=O)c1ccc(N)nc1 [Compound C, 3-(4-{1-[2-(6-Amino-pyridin-3-yl)-2-oxo-ethyl]-1H-benzoimidazol-2-yl}-furazan-3-ylamino)-propionitrile] | highly reproducible and distinct microtubule phenotype |  |  |  |  |  |
